The nature of series [1]: AUC (0 to 12 hrs) in rat at 5 mg/kg, iv by HPLC-MS analysis. As to conditions: plasma. The series is classed as ADME, organism-based. Also on record: time < 12 hr, dose 5 mg/kg, route intravenous.
Series [2] concerns the target 5-hydroxytryptamine receptor 2A (Homo sapiens, UniProt P28223). Briefly: Agonist activity at 5HT2A receptor (unknown origin) expressed in CHOK1 cells coexpressing Galpha15 at 10 uM by FLIPR assay relative to control. The series is classed as cell-based. As to conditions: CHO-K1.
Series [3] has as its target T1, 5-hydroxytryptamine receptor 1A (Homo sapiens, UniProt P08908).
T1 sequence (P08908 whole entry): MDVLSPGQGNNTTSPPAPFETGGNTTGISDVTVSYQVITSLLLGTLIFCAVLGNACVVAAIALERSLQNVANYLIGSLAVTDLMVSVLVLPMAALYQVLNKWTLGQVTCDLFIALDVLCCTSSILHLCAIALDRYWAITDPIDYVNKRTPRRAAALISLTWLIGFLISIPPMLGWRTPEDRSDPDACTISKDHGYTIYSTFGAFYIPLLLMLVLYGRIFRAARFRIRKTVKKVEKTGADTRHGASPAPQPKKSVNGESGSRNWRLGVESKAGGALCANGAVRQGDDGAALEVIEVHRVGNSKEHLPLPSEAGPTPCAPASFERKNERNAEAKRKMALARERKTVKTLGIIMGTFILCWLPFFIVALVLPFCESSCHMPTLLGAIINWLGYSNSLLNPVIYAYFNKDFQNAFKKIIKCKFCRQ
Description: Antagonist activity at 5HT1A receptor (unknown origin) expressed in CHOK1 cells coexpressing Galpha15 assessed as inhibition of agonist-induced response incubated for 60 mins in incubator followed by 15 mins at room temperature by FLIPR assay

The species named for series [4] is Mus musculus. Briefly: animal or person. As to conditions: po.
Series [5] has as its system Mus musculus. Put plainly: Toxicity in po dosed mouse assessed as induction of catalepsy. The series is classed as organism-based. Particulars: in vivo.
The nature of series [6]: AUC (0 to infinity) in rat at 12 mg/kg, po by HPLC-MS analysis. The series is classed as ADME, organism-based. Set-up: time infinity, dose 12 mg/kg, route oral. Particulars: plasma.
For series [7], the target named is T2, 5-hydroxytryptamine receptor 1A (Homo sapiens) (UniProt P08908).
T2 sequence (whole entry): T1 sequence (P08908 whole entry)
Put plainly: Agonist activity at 5HT1A receptor (unknown origin) expressed in CHOK1 cells coexpressing Galpha15 at 10 uM by FLIPR assay relative to control. The series is classed as cell-based. As to conditions: CHO-K1.

Series [8] relates to Rattus norvegicus. Put plainly: Antipsychotic activity in po dosed rat assessed as reduction in conditioned avoidance response after 60 mins. In kind it is functional.
Series [9] in a line: Half life in rat at 5 mg/kg, iv by HPLC-MS analysis. The series is classed as ADME, organism-based. As to conditions: in vivo. Also on record: dose 5 mg/kg, route intravenous.

Chain of 5-hydroxytryptamine receptor 2A (P28223 whole entry): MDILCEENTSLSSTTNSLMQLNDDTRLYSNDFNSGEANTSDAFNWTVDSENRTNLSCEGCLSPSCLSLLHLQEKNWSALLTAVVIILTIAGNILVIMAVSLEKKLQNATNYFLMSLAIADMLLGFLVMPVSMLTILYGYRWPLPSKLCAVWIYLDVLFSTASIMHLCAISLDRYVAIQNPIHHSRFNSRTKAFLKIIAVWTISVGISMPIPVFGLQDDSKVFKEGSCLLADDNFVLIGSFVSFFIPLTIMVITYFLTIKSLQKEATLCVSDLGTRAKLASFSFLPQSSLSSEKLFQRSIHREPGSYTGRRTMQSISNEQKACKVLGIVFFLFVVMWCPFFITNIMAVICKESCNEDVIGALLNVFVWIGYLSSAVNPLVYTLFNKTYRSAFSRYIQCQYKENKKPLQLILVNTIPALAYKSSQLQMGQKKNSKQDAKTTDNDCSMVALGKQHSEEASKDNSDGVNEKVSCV

Take `Cc1cc(=O)oc2c(Cl)c(OCCCCN3CCC(c4noc5cc(F)ccc45)CC3)ccc12`: in series [1], the AUC(0-t) (commonly exposure summed from dosing to a finite time, without extrapolation to infinity) at 12 h was 822 ng·h/mL. The Activity was 10% in series [2], 9.9% in series [7] and “Dose-dependent effect” in [8]. Besides, the IC50 – broadly, the concentration at which inhibition is half-maximal – in series [3] stood at 11.8 nM. Moreover, the ED50 (in general, the dose at which the effect has come halfway, by size or by number of responders) turned out to be 0.32 mg/kg in [4], 70.85 mg/kg in series [5] and 6.5 mg/kg in [8] (1 h). Further, in series [6], the AUC(0-inf) (in general, total exposure, with the tail of the curve extrapolated) was 703 ng·h/mL. Besides, the half-life (usually the time in which the quantity being followed falls by half) in series [9] was 5 h.

The values are drawn from ChEMBL document CHEMBL2385071, “Synthesis and biological investigation of coumarin piperazine (piperidine) derivatives as potential multireceptor atypical antipsychotics” (J Med Chem, 2013).
